Assay results published in US20050288347A1, “Certain triazole-based compounds, compositions, and uses thereof” (priority 2004, published 2005).
“Also recorded” adds a separate entry of the source.

Target: protein kinase
Test: HTS ATP-utilizing enzyme assay, off-chip mobility-shift format (Caliper HTS 250)
Assay type: biochemical, human
Conditions: kinase(s) for which the compound exhibits protein kinase inhibitory activity; test compound 10 μM; active = greater than three-sigma from the mean activity of inactive compounds
Summary of the method: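 Single-point screen at 10 μM compound in HEPES pH 7.5 buffer with Triton X-100 and BSA, 2.5 h at 20–22 °C. Substrate-to-phosphopeptide ratio measured by off-chip microfluidic mobility shift; EDTA wells as 100% and DMSO wells as 0% control, hits called at three-sigma limits.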

| Kinase | Compound |
| --- | --- |
| AURORA-A | Oc1cc2ccccc2cc1-c1nnc(S)n1Cc1ccco1 [3-(4-(furan-2-ylmethyl)-5-mercapto-4H-1,2,4-triazol-3-yl)naphthalen-2-ol] |
| MSK1 | C=CCn1c(S)nnc1-c1cc2ccccc2cc1O [3-(4-allyl-5-mercapto-4H-1,2,4-triazol-3-yl)naphthalen-2-ol] |
| AURORA-A | CCn1c(S)nnc1-c1cc2ccccc2cc1O [3-(4-ethyl-5-mercapto-4H-1,2,4-triazol-3-yl)naphthalen-2-ol] |
| AURORA-A | COCCn1c(S)nnc1-c1cc2ccccc2cc1O [3-(5-mercapto-4-(2-methoxyethyl)-4H-1,2,4-triazol-3-yl)naphthalen-2-ol] |

Same assay, conditions: test compound 10 μM; active = activity greater than three-sigma from the mean of the predominately inactive population for that enzyme

| Compound | protein kinase against which the compound exhibits inhibitory activity (Table 3) |
| --- | --- |
| Fc1ccc(CSc2nnc(-c3cccs3)[nH]2)cc1 [3-(4-fluorobenzylthio)-5-(thiophen-2-yl)-4H-1,2,4-triazole] | AURORA-A; also recorded: FLT-3; also recorded: DYRK2 |
| COc1ccc(Cc2nnc(SCc3cccc4ccccc34)[nH]2)cc1 [3-(4-methoxybenzyl)-5-(naphthalen-1-ylmethylthio)-4H-1,2,4-triazole] | AURORA-A |
| O=[N+]([O-])c1ccc(CSc2nnc[nH]2)cc1 [3-(4-nitrobenzylthio)-4H-1,2,4-triazole] | MSK2 and SRC |
| OCC(O)CSc1nnc(-c2cccc(C(F)(F)F)c2)[nH]1 (centres unmarked) [3-(5-(3-(trifluoromethyl)phenyl)-4H-1,2,4-triazol-3-ylthio)propane-1,2-diol] | AURORA-A; also recorded: FLT-3; also recorded: CHEK2 |
| OCC(O)CSc1nnc(-c2cccc(Cl)c2)[nH]1 (centres unmarked) [3-(5-(3-chlorophenyl)-4H-1,2,4-triazol-3-ylthio)propane-1,2-diol] | AURORA-A; also recorded: FLT-3; also recorded: CHEK2 |
| COc1ccc(-c2nnc(SCC(O)CO)[nH]2)cc1 (centres unmarked) [3-(5-(4-methoxyphenyl)-4H-1,2,4-triazol-3-ylthio)propane-1,2-diol] | AURORA-A; also recorded: FLT-3; also recorded: DYRK2 |
| O=[N+]([O-])c1ccc(-c2nnc(SCC(O)CO)[nH]2)cc1 (centres unmarked) [3-(5-(4-nitrophenyl)-4H-1,2,4-triazol-3-ylthio)propane-1,2-diol] | AURORA-A; also recorded: FLT-3; also recorded: DYRK2 |
| c1cncc(-c2nnc(SCC3CCCO3)[nH]2)c1 (centres unmarked) [3-(5-((tetrahydrofuran-2-yl)methylthio)-4H-1,2,4-triazol-3-yl)pyridine] | AURORA-A |
| OCC(O)CSc1nnc(-c2cccnc2)[nH]1 (centres unmarked) [3-(5-(pyridin-3-yl)-4H-1,2,4-triazol-3-ylthio)propane-1,2-diol] | AURORA-A |
| CN(C)CCCSc1nnc(C(C)(C)C)[nH]1 [3-(5-tert-butyl-4H-1,2,4-triazol-3-ylthio)-N,N-dimethylpropan-1-amine] | c-TAK1 |
| COc1cccc(OCc2nnc(SC)n2C)c1 [3-((3-methoxyphenoxy)methyl)-4-methyl-5-(methylthio)-4H-1,2,4-triazole] | AURORA-A |
| CCCCSc1nnc(COc2ccc(Br)cc2)n1CC [3-((4-bromophenoxy)methyl)-5-(butylthio)-4-ethyl-4H-1,2,4-triazole] | CDK2-cyclinA; also recorded: AURORA-A |
| COc1ccc(-c2nnc(SCc3cccnc3)[nH]2)cc1 [3-((5-(4-methoxyphenyl)-4H-1,2,4-triazol-3-ylthio)methyl)pyridine] | AURORA-A; also recorded: FLT-3; also recorded: DYRK2 |
| Cc1nnc(SCc2ccccc2)n1Cc1ccc(Cl)c(Cl)c1 [3-(benzylthio)-4-(3,4-dichlorobenzyl)-5-methyl-4H-1,2,4-triazole] | GSK3-α; also recorded: GSK3-β; also recorded: c-TAK1 |
| Clc1cccc(-c2nnc(SCc3ccccc3)[nH]2)c1 [3-(benzylthio)-5-(3-chlorophenyl)-4H-1,2,4-triazole] | AURORA-A; also recorded: c-TAK1; also recorded: FLT-3 |
| Cc1nnc(SCc2ccccc2)n1CCc1ccccc1 [3-(benzylthio)-5-methyl-4-phenethyl-4H-1,2,4-triazole] | GSK3-β; also recorded: GSK3-α; also recorded: c-TAK1 |
| Cc1nnc(SCc2ccccc2)[nH]1 [3-(benzylthio)-5-methyl-4H-1,2,4-triazole] | AURORA-A; also recorded: DYRK2 |

Now from value to compound:

| protein kinase against which the compound exhibits inhibitory activity (Table 3) | Compound |
| --- | --- |
| GSK3-β; also recorded: GSK3-α | O=C(O)CCSc1nnc(-c2ccc(O)cc2)n1Cc1ccccc1 [3-(4-benzyl-5-(4-hydroxyphenyl)-4H-1,2,4-triazol-3-ylthio)propanoic acid] |
| CDK1 | COc1ccc(-c2nnc(SCc3ccc(Cl)cc3)n2-c2ccccc2)cc1OC [3-(4-chlorobenzylthio)-5-(3,4-dimethoxyphenyl)-4-phenyl-4H-1,2,4-triazole] |
| PRAK and FYN | Cn1c(SCc2ccc(Cl)c(Cl)c2)nnc1-c1ccc(Cl)cc1 [3-(4-chlorophenyl)-5-(3,4-dichlorobenzylthio)-4-methyl-4H-1,2,4-triazole] |
| FLT-3; also recorded: AURORA-A | Fc1ccc(CSc2nnc(-c3ccc(OC(F)(F)F)cc3)[nH]2)cc1 [3-(4-fluorobenzylthio)-5-(4-(trifluoromethoxy)phenyl)-4H-1,2,4-triazole] |
| FLT-3 | COc1ccc(-c2nnc(SCc3ccc(S(C)(=O)=O)cc3)[nH]2)cc1 [3-(4-methoxyphenyl)-5-(4-(methylsulfonyl)benzylthio)-4H-1,2,4-triazole] |
| AURORA-A | O=C(O)CCSc1nnc(-c2cccnc2)n1-c1ccccc1 [3-(4-phenyl-5-(pyridin-3-yl)-4H-1,2,4-triazol-3-ylthio)propanoic acid] |
| MAPKALPK-2 and AKT1 | COCCCn1c(C)nnc1SCc1ccc(C(C)(C)C)cc1 [3-(4-tert-butylbenzylthio)-4-(3-methoxypropyl)-5-methyl-4H-1,2,4-triazole] |
| AURORA-A | CCOCCSc1nnc(-c2cccnc2)[nH]1 [3-(5-(2-ethoxyethylthio)-4H-1,2,4-triazol-3-yl)pyridine] |
| CHEK2 | Cn1c(SCc2ccc(Cl)cc2)nnc1-c1cccnc1 [3-(5-(4-chlorobenzylthio)-4-methyl-4H-1,2,4-triazol-3-yl)pyridine] |
| MAPKAPK-2 | CCn1c(SCc2ccc(C(C)(C)C)cc2)nnc1-c1cccnc1 [3-(5-(4-tert-butylbenzylthio)-4-ethyl-4H-1,2,4-triazol-3-yl)pyridine] |
| PDGFRR-α | Cn1c(SCc2ccc(C(C)(C)C)cc2)nnc1-c1cccnc1 [3-(5-(4-tert-butylbenzylthio)-4-methyl-4H-1,2,4-triazol-3-yl)pyridine] |
| AURORA-A | Cc1ccc(-n2c(SCc3ccccc3)nnc2-c2cccnc2)cc1 [3-(5-(benzylthio)-4-p-tolyl-4H-1,2,4-triazol-3-yl)pyridine] |
| MSK1 | c1ccc(CCn2c(SCc3ccccc3)nnc2-c2cccnc2)cc1 [3-(5-(benzylthio)-4-phenethyl-4H-1,2,4-triazol-3-yl)pyridine] |
| FLT-3; also recorded: AURORA-A | c1cncc(-c2nnc(SCC3CC3)[nH]2)c1 [3-(5-(cyclopropylmethylthio)-4H-1,2,4-triazol-3-yl)pyridine] |
| AURORA-A | CCSc1nnc(COc2ccc(CC)cc2)n1C [3-((4-ethylphenoxy)methyl)-5-(ethylthio)-4-methyl-4H-1,2,4-triazole] |
| FLT-3 | Clc1ccc(OCc2nnc(SCc3cccnc3)[nH]2)cc1 [3-((5-((4-chlorophenoxy)methyl)-4H-1,2,4-triazol-3-ylthio)methyl)pyridine] |
| AURORA-A | CC(C)Cc1nnc(SCc2ccccc2)n1Cc1ccc(Cl)c(Cl)c1 [3-(benzylthio)-4-(3,4-dichlorobenzyl)-5-isobutyl-4H-1,2,4-triazole] |
| c-TAK1 | CCC(c1ccccc1)c1nnc(SCc2ccccc2)n1CCc1ccc(C)cc1 (centres unmarked) [3-(benzylthio)-4-(4-methylphenethyl)-5-(1-phenylpropyl)-4H-1,2,4-triazole] |
| GSK3-α | Cc1nnc(SCc2ccccc2)n1Cc1ccco1 [3-(benzylthio)-4-(furan-2-ylmethyl)-5-methyl-4H-1,2,4-triazole] |
| GSK3-α | CCn1c(C)nnc1SCc1ccccc1 [3-(benzylthio)-4-ethyl-5-methyl-4H-1,2,4-triazole] |
| INSR and SYK and PAK2 | COc1ccc(-c2nnc(SCc3ccccc3)n2-c2ccccc2)cc1 [3-(benzylthio)-5-(4-methoxyphenyl)-4-phenyl-4H-1,2,4-triazole] |
| AURORA-A; also recorded: c-TAK1 | C=CCCc1nnc(SCc2ccccc2)n1Cc1ccc(Cl)c(Cl)c1 [3-(benzylthio)-5-(but-3-enyl)-4-(3,4-dichlorobenzyl)-4H-1,2,4-triazole] |
| c-TAK1 | Clc1ccc(Cn2c(SCc3ccccc3)nnc2C2CCCCC2)cc1Cl [3-(benzylthio)-5-cyclohexyl-4-(3,4-dichlorobenzyl)-4H-1,2,4-triazole] |
